Usually IC50 stands for the concentration needed to halve the response being measured. A lower IC50 goes with inhibition by little substance.

One assay deals with Trypanosoma cruzi. Description: Antitrypanosomal activity against Trypanosoma cruzi. Format: functional, organism-based.
The test system of a further assay is Leishmania donovani. The assay is described as follows: […] activity against Leishmania donovani. Format: functional, organism-based.
The subject of assay [1] is Trichomonas vaginalis. The assay is described as follows: Antiprotozoal activity against Trichomonas vaginalis assessed as reduction in […] at 250 ug/ml at relative to control. Format: functional.
For assay [2], the system named is Trypanosoma brucei rhodesiense. Description: Antitrypanosomal activity against Trypanosoma brucei rhodesiense. Format: functional, organism-based.
The subject of assay [3] is Trichomonas vaginalis. The assay is described as follows: Antitrichomonal activity against Trichomonas vaginalis assessed as reduction in parasite viability at 125 ug/ml relative to control. Format: functional.

≈ marks a conversion by molar mass, not a printed value. Where only a bound is given, the exact number is not on record here.

In the case of `COc1ccc2c3c1O[C@H]1C[C@H](O)C=C[C@@]31CCN(C)C2`, the half-inhibitory concentration (IC50) in the assay on Trypanosoma cruzi and in the assay with Leishmania donovani was over 30 µg/mL in each case.
With `O=C(O[C@H]1[C@H]2c3cc4c(cc3CN3CCC(=C[C@@H]1OC(=O)c1ccccc1)[C@H]23)OCO4)c1ccccc1`, the Activity in the assay on Trichomonas vaginalis [1] is 84%.
Still for that read-out and setting: under `O=C(O[C@H]1C=C2CCN3Cc4cc5c(cc4[C@H]([C@@H]1O)[C@@H]23)OCO5)c1ccccc1` stands 35%.
On to `O=c1c2cc3c(cc2c2cccc4ccn1c42)OCO3`, for which the IC50 with Trypanosoma cruzi stood at 90 µg/mL (≈ 342 µM); in assay [2] it was 8.4 µg/mL (≈ 31.9 µM).
The compound `COc1cc2c(cc1OC)[C@@]13C=CC(=O)C[C@@H]1[N@](CC3)C2` gave a concentration for half-maximal inhibition (IC50) in assay [2] of 2.8 µg/mL (≈ 9.81 µM).
On to `O[C@H]1C=C2[C@H]3CN(Cc4cc5c(cc43)OCO5)[C@H]2C[C@@H]1O`, for which the 50% inhibitory concentration (IC50) was 7.1 µg/mL (≈ 24.7 µM) in the assay on Trypanosoma cruzi, over 30 µg/mL in the assay on Leishmania donovani and 0.7 µg/mL (≈ 2.44 µM) in assay [2].
For `CCCCCCCCCCCC(=O)O[C@H]1C=C2CCN3Cc4cc5c(cc4[C@H]([C@@H]1O)[C@@H]23)OCO5`, in the assay on Trichomonas vaginalis [1], the Activity is reported as 97%.
Consider `COc1cc2c[n+]3c4c(cc([O-])cc4c2cc1O)CC3`, for which the half-inhibitory concentration (IC50) (with Trypanosoma cruzi; with Leishmania donovani; in assay [2]) was over 30 µg/mL in each case.
As for `COc1cc2c(cc1O)C[N@@]1C[C@H](O)[C@@]23C=C[C@@H](OC)C[C@H]13`, the half-inhibitory concentration (IC50) was 88.4 µg/mL (≈ 291 µM) in the assay on Trypanosoma cruzi, over 90 µg/mL in the assay on Leishmania donovani and 10.2 µg/mL (≈ 33.7 µM) in assay [2].
Consider `CN1CC[C@]23c4cc5c(cc4[C@@H]4C[C@H]2[C@H](CC[C@H]13)O4)OCO5`, for which the half-maximal inhibitory concentration (IC50) was 54 µg/mL (≈ 180 µM) in the assay on Trypanosoma cruzi, over 100 µg/mL in the assay on Leishmania donovani and 19.2 µg/mL (≈ 64.1 µM) in assay [2].
Turning to `O=c1[nH]c2c(O)cccc2c2cc3c(cc12)OCO3`, the half-inhibitory concentration (IC50) was 52.7 µg/mL (≈ 207 µM) in the assay with Trypanosoma cruzi, over 90 µg/mL with Leishmania donovani and 5.99 µg/mL (≈ 23.5 µM) in assay [2].
In the case of `O[C@H]1[C@H]2C(=CC[C@@H]1O)[C@H]1C[N@]2Cc2cc3c(cc21)OCO3`, the IC50 with Trypanosoma cruzi was 54.6 µg/mL (≈ 190 µM); with Leishmania donovani, over 30 µg/mL; in assay [2] it was 9.6 µg/mL (≈ 33.4 µM).
Consider `[O-][N@@+]12Cc3cc4c(cc3[C@]3(C=C[C@@H](O)C[C@@H]31)[C@@H](O)C2)OCO4`, for which the half-maximal inhibitory concentration (IC50) (with Trypanosoma cruzi; with Leishmania donovani; in assay [2]) was over 90 µg/mL throughout.
In the case of `O[C@H]1CC[C@H]2[N@@]3CC[C@@]2(c2cc4c(cc2C3)OCO4)[C@H]1O`, it took 11.1 µg/mL (≈ 38.3 µM) to reach half-maximal inhibition in assay [2] (IC50).
`CC(=O)O[C@H]1C=C[C@@]23c4cc5c(cc4C[N@@](C[C@@H]2O)[C@H]3C1)OCO5`: the half-inhibitory concentration (IC50) came out at 8.3 µg/mL (≈ 25.2 µM) with Trypanosoma cruzi, 17.9 µg/mL (≈ 54.3 µM) in the assay with Leishmania donovani and 1.51 µg/mL (≈ 4.58 µM) in assay [2].
Turning to `COc1ccc(CNCCc2ccc(O)cc2)cc1O`, the IC50 in the assay with Trypanosoma cruzi is 58.7 µg/mL (≈ 215 µM); with Leishmania donovani it was 52.9 µg/mL (≈ 194 µM); in assay [2] it was 28.6 µg/mL (≈ 105 µM).
`O=C(O[C@H]1[C@H]2c3cc4c(cc3CN3CCC(=C[C@@H]1O)[C@H]23)OCO4)c1ccc([N+](=O)[O-])cc1`: the Activity in the assay with Trichomonas vaginalis [1] worked out at 58%.
With `CN1CCc2cc3c(cc2C(=O)Cc2ccc4c(c2C1)OCO4)OCO3`, the half-inhibitory concentration (IC50) was 46.3 µg/mL (≈ 131 µM) with Trypanosoma cruzi, over 90 µg/mL in the assay with Leishmania donovani and 8.71 µg/mL (≈ 24.6 µM) in assay [2].
`c1c2c(cc3c1[C@@H]1C[C@H]4[C@H](CC[C@@H]5NCC[C@@]354)O1)OCO2`: inhibition in assay [2] was half-maximal at 18.7 µg/mL (≈ 65.5 µM) (IC50).
For the compound `O=C(O[C@H]1C=C2CCN3Cc4cc5c(cc4[C@H]([C@@H]1O)[C@@H]23)OCO5)c1ccc([N+](=O)[O-])cc1`, the Activity in the assay with Trichomonas vaginalis [1] is 79%.
As for `COc1cc2c(cc1OC)[C@@H]1[C@H](O)[C@@H](OC)[C@H](O)C3=CCN(C2)[C@H]31`, the concentration for half-maximal inhibition (IC50) in assay [2] worked out at 3.1 µg/mL (≈ 9.3 µM).
Take `COc1c2c(cc3c1OCO3)[C@]13CC[N@](C2)[C@H]1CC=C[C@@H]3O`: the IC50 in the assay on Trypanosoma cruzi was over 30 µg/mL; with Leishmania donovani, over 30 µg/mL; in assay [2], 28.8 µg/mL (≈ 95.6 µM).
Take `O[C@@H]1CC[C@H]2N3CC[C@@]2(c2cc4c(cc2C3)OCO4)[C@@H]1O`: in assay [2], the IC50 turned out to be 31.9 µg/mL (≈ 110 µM).
For `CC(=O)O[C@H]1C=C[C@@]23CCN(C)Cc4ccc(O)c(c42)O[C@H]3C1`, the IC50 with Trypanosoma cruzi was determined as 2.3 µg/mL (≈ 7.29 µM); in assay [2] it was 1.1 µg/mL (≈ 3.49 µM).
`CN1CCC2=C[C@H](O)[C@H]3OC(=O)c4cc5c(cc4[C@H]3[C@@H]21)OCO5`: in the assay with Trichomonas vaginalis [3], the Activity worked out at 13%.
With `COc1c2c(cc3c1OCO3)[C@@]13CC[N@@](C2)[C@@H]1C[C@@H](OC)[C@@H]1O[C@@H]13`, the IC50 in the assay with Trypanosoma cruzi was 56 µg/mL (≈ 169 µM); in the assay with Leishmania donovani, over 100 µg/mL; in assay [2], 15 µg/mL (≈ 45.4 µM).
For the compound `COc1cc(C=O)c(-c2cccc3c2N(C)CC3)cc1OC`, the Activity in the assay with Trichomonas vaginalis [3] and in the assay with Trichomonas vaginalis [1] was 28% in each case.

(Values after ChEMBL document CHEMBL4373731, “Antiprotozoal alkaloid principles of the plant family Amaryllidaceae” (Bioorg Med Chem Lett, 2019).)
